Assay results reported in the NIST ThermoML archive (doi:10.1016/j.jct.2016.08.001).
± gives the expanded uncertainty stated by the source.

Legend:
[1] = xn = mol fraction of the nth substance listed; conditions: 100 kPa, Liquid; for speed of sound: Frequency=3 MHz, Sing-around technique in a fixed-path interferometer; for mass density: Vibrating tube method
[2] = refractive index (Na D-line) (dimensionless); xn = mol fraction of the nth substance listed; conditions: 100 kPa, Liquid, Standard Abbe refractometry

N#Cc1ccccc1 [benzonitrile] + CCOC(=O)OCC
Conditions | mass density, [1] [kg/m3] | refractive index, [2] | speed of sound, [1] [m/s]
298.15 K, x2 = 0 | 1000.6 ± 1 | 1.526 ± 0.0016 | 1415.6 ± 1.5
298.15 K, x2 = 0.0854 | 998.8 ± 1 | 1.5123 ± 0.0016 | 1396.3 ± 1.5
298.15 K, x2 = 0.1886 | 996.7 ± 1 | 1.4963 ± 0.0016 | 1373.1 ± 1.5
298.15 K, x2 = 0.2618 | 994.9 ± 1 | 1.4851 ± 0.0016 | 1356.1 ± 1.5
298.15 K, x2 = 0.3642 | 992.1 ± 1 | 1.4698 ± 0.0016 | 1331.9 ± 1.5
298.15 K, x2 = 0.462 | 989.3 ± 1 | 1.4556 ± 0.0016 | 1308.6 ± 1.5
298.15 K, x2 = 0.5563 | 986.3 ± 1 | 1.442 ± 0.0016 | 1286.1 ± 1.5
298.15 K, x2 = 0.6599 | 982.7 ± 1 | 1.4275 ± 0.0016 | 1261 ± 1.5
298.15 K, x2 = 0.7732 | 978.5 ± 1 | 1.412 ± 0.0016 | 1233.3 ± 1.5
298.15 K, x2 = 0.8703 | 974.6 ± 1 | 1.3991 ± 0.0016 | 1209.4 ± 1.6
303.15 K, x2 = 0 | 995.9 ± 1 | 1.5235 ± 0.0016 | 1398.1 ± 1.5
303.15 K, x2 = 0.0854 | 994 ± 1 | 1.5098 ± 0.0016 | 1378.5 ± 1.5
303.15 K, x2 = 0.1886 | 991.9 ± 1 | 1.494 ± 0.0016 | 1354.8 ± 1.5
303.15 K, x2 = 0.2618 | 990 ± 1 | 1.4828 ± 0.0016 | 1337.7 ± 1.5
303.15 K, x2 = 0.3642 | 987.2 ± 1 | 1.4676 ± 0.0016 | 1313.1 ± 1.5
303.15 K, x2 = 0.462 | 984.3 ± 1 | 1.4533 ± 0.0016 | 1289.5 ± 1.5
303.15 K, x2 = 0.5563 | 981.2 ± 1 | 1.4398 ± 0.0016 | 1266.7 ± 1.5
303.15 K, x2 = 0.6599 | 977.5 ± 1 | 1.4253 ± 0.0016 | 1241.3 ± 1.5
303.15 K, x2 = 0.7732 | 973.2 ± 1 | 1.4098 ± 0.0016 | 1213.3 ± 1.5
303.15 K, x2 = 0.8703 | 969.2 ± 1 | 1.3969 ± 0.0016 | 1189.2 ± 1.5
308.15 K, x2 = 0 | 991.4 ± 1 | 1.5209 ± 0.0016 | 1380.8 ± 1.5
308.15 K, x2 = 0.0854 | 989.5 ± 1 | 1.5074 ± 0.0016 | 1360.8 ± 1.5
308.15 K, x2 = 0.1886 | 987.2 ± 1 | 1.4916 ± 0.0016 | 1336.7 ± 1.5
308.15 K, x2 = 0.2618 | 985.3 ± 1 | 1.4806 ± 0.0016 | 1319.3 ± 1.5
308.15 K, x2 = 0.3642 | 982.3 ± 1 | 1.4653 ± 0.0016 | 1294.4 ± 1.5
308.15 K, x2 = 0.462 | 979.3 ± 1 | 1.4511 ± 0.0016 | 1270.6 ± 1.5
308.15 K, x2 = 0.5563 | 976.1 ± 1 | 1.4376 ± 0.0016 | 1247.4 ± 1.5
308.15 K, x2 = 0.6599 | 972.3 ± 1 | 1.4231 ± 0.0016 | 1221.8 ± 1.5
308.15 K, x2 = 0.7732 | 967.8 ± 1 | 1.4076 ± 0.0016 | 1193.5 ± 1.5
308.15 K, x2 = 0.8703 | 963.7 ± 1 | 1.3946 ± 0.0016 | 1169.1 ± 1.5
313.15 K, x2 = 0 | 986.9 ± 1 | 1.5184 ± 0.0016 | 1363.6 ± 1.5
313.15 K, x2 = 0.0854 | 984.9 ± 1 | 1.505 ± 0.0016 | 1343.2 ± 1.5
313.15 K, x2 = 0.1886 | 982.5 ± 1 | 1.4893 ± 0.0016 | 1318.7 ± 1.5
313.15 K, x2 = 0.2618 | 980.5 ± 1 | 1.4783 ± 0.0016 | 1301 ± 1.5
313.15 K, x2 = 0.3642 | 977.4 ± 1 | 1.4631 ± 0.0016 | 1275.9 ± 1.5
313.15 K, x2 = 0.462 | 974.2 ± 1 | 1.4489 ± 0.0016 | 1251.8 ± 1.5
313.15 K, x2 = 0.5563 | 970.9 ± 1 | 1.4353 ± 0.0016 | 1228.3 ± 1.5
313.15 K, x2 = 0.6599 | 967 ± 1 | 1.4208 ± 0.0016 | 1202.4 ± 1.5
313.15 K, x2 = 0.7732 | 962.4 ± 1 | 1.4054 ± 0.0016 | 1173.8 ± 1.5
313.15 K, x2 = 0.8703 | 958.2 ± 1 | 1.3924 ± 0.0016 | 1149.2 ± 1.5
318.15 K, x2 = 0 | 982.5 ± 1 | 1.5158 ± 0.0016 | 1346.5 ± 1.5
318.15 K, x2 = 0.0854 | 980.4 ± 1 | 1.5025 ± 0.0016 | 1325.7 ± 1.5
318.15 K, x2 = 0.1886 | 977.9 ± 1 | 1.487 ± 0.0016 | 1300.8 ± 1.5
318.15 K, x2 = 0.2618 | 975.8 ± 1 | 1.4761 ± 0.0016 | 1282.9 ± 1.5
318.15 K, x2 = 0.3642 | 972.5 ± 1 | 1.4609 ± 0.0016 | 1257.4 ± 1.5
318.15 K, x2 = 0.462 | 969.2 ± 1 | 1.4466 ± 0.0016 | 1233 ± 1.5
318.15 K, x2 = 0.5563 | 965.8 ± 1 | 1.4332 ± 0.0016 | 1209.3 ± 1.5
318.15 K, x2 = 0.6599 | 961.7 ± 1 | 1.4187 ± 0.0016 | 1183.2 ± 1.5
318.15 K, x2 = 0.7732 | 956.9 ± 1 | 1.4032 ± 0.0016 | 1154.3 ± 1.5
318.15 K, x2 = 0.8703 | 952.7 ± 1 | 1.3902 ± 0.0016 | 1129.5 ± 1.5
323.15 K, x2 = 0 | 977.9 ± 1 | 1.5133 ± 0.0016 | 1329.5 ± 1.5
323.15 K, x2 = 0.0854 | 975.8 ± 1 | 1.5002 ± 0.0016 | 1308.3 ± 1.5
323.15 K, x2 = 0.1886 | 973.2 ± 1 | 1.4848 ± 0.0016 | 1282.9 ± 1.5
323.15 K, x2 = 0.2618 | 971 ± 1 | 1.4739 ± 0.0016 | 1264.9 ± 1.5
323.15 K, x2 = 0.3642 | 967.6 ± 1 | 1.4587 ± 0.0016 | 1239.3 ± 1.5
323.15 K, x2 = 0.462 | 964.2 ± 1 | 1.4445 ± 0.0016 | 1214.5 ± 1.5
323.15 K, x2 = 0.5563 | 960.6 ± 1 | 1.431 ± 0.0016 | 1190.6 ± 1.5
323.15 K, x2 = 0.6599 | 956.5 ± 1 | 1.4165 ± 0.0016 | 1164.1 ± 1.5
323.15 K, x2 = 0.7732 | 951.5 ± 1 | 1.401 ± 0.0016 | 1135 ± 1.5
323.15 K, x2 = 0.8703 | 947.1 ± 1 | 1.3881 ± 0.0016 | 1110 ± 1.5
